{"source": "patent US8802895B2", "about": "“Amide derivatives of benzene-sulfonanilide, pharmaceutical composition thereof and method for cancer treatment using the same” (Cleveland State University, priority 2010, dated 2014)", "key": {"UACC-257": {"tested_on": "UACC-257", "experiment": "NCIDTP 60 cancer cell lines screening, Melanoma panel", "assay_type": "cell-based", "details": "UACC-257"}, "IGROV1": {"tested_on": "IGROV1", "experiment": "NCIDTP 60 cancer cell lines screening, Ovarian Cancer panel", "assay_type": "cell-based"}, "OVCAR-3": {"tested_on": "OVCAR-3", "experiment": "NCIDTP 60 cancer cell lines screening, Ovarian Cancer panel", "assay_type": "cell-based"}, "786-0": {"tested_on": "786-0", "experiment": "NCIDTP 60 cancer cell lines screening, Renal Cancer panel", "assay_type": "cell-based"}, "A498": {"tested_on": "A498", "experiment": "NCIDTP 60 cancer cell lines screening, Renal Cancer panel", "assay_type": "cell-based"}, "ACHN": {"tested_on": "ACHN", "experiment": "NCIDTP 60 cancer cell lines screening, Renal Cancer panel", "assay_type": "cell-based"}, "TK-10": {"tested_on": "TK-10", "experiment": "NCIDTP 60 cancer cell lines screening, Renal Cancer panel", "assay_type": "cell-based"}, "HS 578T": {"tested_on": "HS 578T", "experiment": "NCIDTP 60 cancer cell lines screening, Breast Cancer panel", "assay_type": "cell-based"}, "cells": {"tested_on": "cells", "experiment": "Primary mechanism study: cell viability with compound #10 and 2-APB (FIG. 10)", "assay_type": "cell-based", "details": "with and without 2-APB; cell viability after 48 hours", "experimental": "For the experiment, 2-APB was first added. […] The control cells were treated with same amount of DMSO to carry the drugs. The cell viability was evaluated after 48 hours."}, "[1]": {"tested_on": "HT29 colon cancer xenograft", "experiment": "In vivo study, HT29 colon cancer xenograft model (FIG. 11)", "set-up": "species or system BALB/c athymic nude mice", "details": "HT29 xenograft in nude mice, 5 mg/kg/day, i.p., 20 days", "text": "HT29 colon cancer xenograft model is a generally accepted in vivo cancer model and the formed tumor grows very aggressively. […] In the experiment, HT29 xenografts were established in ovariectomized 5- to 6-week-old BALB/c athymic nude mice (Case Western Reserve University animal facility). When tumors reach 150-200 mm^3 (i.e., in 2-4 weeks), the animals are randomly allocated (n=3 per group) to be treated with the compounds or vehicle (1% Tween 80) administered via i.p. Tumor growth was assessed and tumor weights were measured at the end of the experiment after the mice were killed. The animal care was in accordance with institutional guidelines."}}}
{"smiles": "Cc1ccc(C)c(COc2cc(NC(=O)c3ccc4c(c3)OCO4)ccc2N(C)S(C)(=O)=O)c1", "note": "[Compound #10, Benzo[1,3]dioxole-5-carboxylic acid [3-(2,5-dimethyl-benzyloxy)-4-(methanesulfonyl-methyl-amino)-phenyl]-amide]", "values": [{"measurement": "Percent Growth", "setting": "UACC-257; Log10 Concentration −6.0 Molar", "value": 32, "unit": "%"}, {"measurement": "Percent Growth", "setting": "UACC-257; Log10 Concentration −7.0 Molar", "value": 53, "unit": "%"}, {"measurement": "Percent Growth", "setting": "UACC-257; Log10 Concentration −8.0 Molar", "value": 88, "unit": "%"}, {"measurement": "CC50", "setting": "IGROV1; Homo sapiens, IGROV-1, read-out: LC50", "value": "> 100", "unit": "µM"}, {"measurement": "GI50", "setting": "IGROV1; Homo sapiens, IGROV-1, IGROV1", "value": 237, "unit": "nM"}, {"measurement": "TGI", "setting": "IGROV1; IGROV1", "value": ">1.00E−4", "unit": "Molar"}, {"measurement": "Percent Growth", "setting": "IGROV1; IGROV1, Log10 Concentration −4.0 Molar", "value": 13, "unit": "%"}, {"measurement": "Percent Growth", "setting": "IGROV1; IGROV1, Log10 Concentration −5.0 Molar", "value": 13, "unit": "%"}, {"measurement": "Percent Growth", "setting": "IGROV1; IGROV1, Log10 Concentration −6.0 Molar", "value": 18, "unit": "%"}, {"measurement": "Percent Growth", "setting": "IGROV1; IGROV1, Log10 Concentration −7.0 Molar", "value": 69, "unit": "%"}, {"measurement": "Percent Growth", "setting": "IGROV1; IGROV1, Log10 Concentration −8.0 Molar", "value": 92, "unit": "%"}, {"measurement": "TGI", "setting": "OVCAR-3", "value": "1.66E−7", "unit": "Molar"}, {"measurement": "GI50", "setting": "OVCAR-3; Homo sapiens", "value": 39.6, "unit": "nM"}, {"measurement": "Percent Growth", "setting": "OVCAR-3; Log10 Concentration −4.0 Molar", "value": "−32", "unit": "%"}, {"measurement": "Percent Growth", "setting": "OVCAR-3; Log10 Concentration −5.0 Molar", "value": "−44", "unit": "%"}, {"measurement": "Percent Growth", "setting": "OVCAR-3; Log10 Concentration −6.0 Molar", "value": "−67", "unit": "%"}, {"measurement": "Percent Growth", "setting": "OVCAR-3; Log10 Concentration −7.0 Molar", "value": 19, "unit": "%"}, {"measurement": "Percent Growth", "setting": "OVCAR-3; Log10 Concentration −8.0 Molar", "value": 96, "unit": "%"}, {"measurement": "TGI", "setting": "786-0; 786-0", "value": "1.11E−6", "unit": "Molar"}, {"measurement": "Percent Growth", "setting": "786-0; 786-0, Log10 Concentration −4.0 Molar", "value": "−14", "unit": "%"}, {"measurement": "Percent Growth", "setting": "786-0; 786-0, Log10 Concentration −5.0 Molar", "value": "−22", "unit": "%"}, {"measurement": "Percent Growth", "setting": "786-0; 786-0, Log10 Concentration −6.0 Molar", "value": 1, "unit": "%"}, {"measurement": "Percent Growth", "setting": "786-0; 786-0, Log10 Concentration −7.0 Molar", "value": 69, "unit": "%"}, {"measurement": "Percent Growth", "setting": "786-0; 786-0, Log10 Concentration −8.0 Molar", "value": 91, "unit": "%"}, {"measurement": "GI50", "setting": "786-0; Homo sapiens, 786-0", "value": 191, "unit": "nM"}, {"measurement": "CC50", "setting": "786-0; Homo sapiens, 786-0, read-out: LC50", "value": "> 100", "unit": "µM"}, {"measurement": "TGI", "setting": "A498; A498", "value": "8.53E−7", "unit": "Molar"}, {"measurement": "Percent Growth", "setting": "A498; A498, Log10 Concentration −4.0 Molar", "value": "−5", "unit": "%"}, {"measurement": "Percent Growth", "setting": "A498; A498, Log10 Concentration −5.0 Molar", "value": "−7", "unit": "%"}, {"measurement": "Percent Growth", "setting": "A498; A498, Log10 Concentration −6.0 Molar", "value": "−4", "unit": "%"}, {"measurement": "Percent Growth", "setting": "A498; A498, Log10 Concentration −7.0 Molar", "value": 55, "unit": "%"}, {"measurement": "Percent Growth", "setting": "A498; A498, Log10 Concentration −8.0 Molar", "value": 86, "unit": "%"}, {"measurement": "GI50", "setting": "A498; Homo sapiens, A498", "value": 122, "unit": "nM"}, {"measurement": "CC50", "setting": "A498; Homo sapiens, A498, read-out: LC50", "value": "> 100", "unit": "µM"}, {"measurement": "TGI", "setting": "ACHN", "value": ">1.00E−4", "unit": "Molar"}, {"measurement": "GI50", "setting": "ACHN; Homo sapiens", "value": 687, "unit": "nM"}, {"measurement": "CC50", "setting": "ACHN; Homo sapiens, read-out: LC50", "value": "> 100", "unit": "µM"}, {"measurement": "Percent Growth", "setting": "ACHN; Log10 Concentration −4.0 Molar", "value": 23, "unit": "%"}, {"measurement": "Percent Growth", "setting": "ACHN; Log10 Concentration −5.0 Molar", "value": 26, "unit": "%"}, {"measurement": "Percent Growth", "setting": "ACHN; Log10 Concentration −6.0 Molar", "value": 45, "unit": "%"}, {"measurement": "Percent Growth", "setting": "ACHN; Log10 Concentration −7.0 Molar", "value": 75, "unit": "%"}, {"measurement": "Percent Growth", "setting": "ACHN; Log10 Concentration −8.0 Molar", "value": 95, "unit": "%"}, {"measurement": "GI50", "setting": "TK-10; Homo sapiens, TK-10", "value": 354, "unit": "nM"}, {"measurement": "CC50", "setting": "TK-10; Homo sapiens, TK-10, read-out: LC50", "value": "> 100", "unit": "µM"}, {"measurement": "TGI", "setting": "TK-10; TK-10", "value": ">1.00E−4", "unit": "Molar"}, {"measurement": "Percent Growth", "setting": "TK-10; TK-10, Log10 Concentration −4.0 Molar", "value": 9, "unit": "%"}, {"measurement": "Percent Growth", "setting": "TK-10; TK-10, Log10 Concentration −5.0 Molar", "value": 6, "unit": "%"}, {"measurement": "Percent Growth", "setting": "TK-10; TK-10, Log10 Concentration −6.0 Molar", "value": 18, "unit": "%"}, {"measurement": "Percent Growth", "setting": "TK-10; TK-10, Log10 Concentration −7.0 Molar", "value": 88, "unit": "%"}, {"measurement": "Percent Growth", "setting": "TK-10; TK-10, Log10 Concentration −8.0 Molar", "value": 92, "unit": "%"}, {"measurement": "Percent Growth", "setting": "HS 578T; HS 578T, Log10 Concentration −4.0 Molar", "value": 3, "unit": "%"}, {"measurement": "Percent Growth", "setting": "HS 578T; HS 578T, Log10 Concentration −5.0 Molar", "value": "−9", "unit": "%"}, {"measurement": "Percent Growth", "setting": "HS 578T; HS 578T, Log10 Concentration −6.0 Molar", "value": "−5", "unit": "%"}, {"measurement": "Percent Growth", "setting": "HS 578T; HS 578T, Log10 Concentration −7.0 Molar", "value": 47, "unit": "%"}, {"measurement": "Percent Growth", "setting": "HS 578T; HS 578T, Log10 Concentration −8.0 Molar", "value": 90, "unit": "%"}, {"measurement": "CC50", "setting": "HS 578T; Homo sapiens, Hs-578T, read-out: LC50", "value": "> 100", "unit": "µM"}, {"measurement": "GI50", "setting": "HS 578T; Homo sapiens, HS 578T", "value": 87, "unit": "nM"}, {"measurement": "cell death / cell viability, relation with calcium signal", "setting": "cells", "value": "induces cell death that is at least partially related with calcium signal in the cells"}, {"measurement": "tumor growth", "setting": "[1]", "value": "significantly inhibited the tumor growth"}]}
